Reference: patent US9827320B2, “Compositions with reduced bitter taste perception” (The Procter & Gamble Company, priority 2014, dated 2017)
Structures can show the parent of a compound that is named as a salt.

System: Human fungiform taste bud cells
Experiment: Assay for Taste Receptors (calcium fluorescence, FLIPR)
Assay type: cell-based
Details: without polyquaternium-2
[1] = FIG. 5B, 0.5 mM 1,10-phenanthroline, 0.5 mM saccharin, 3% propylene glycol

| SMILES | bitterness of the component itself [1] | bitterness of the component itself (FIG. 5C, 2 mM) |
| --- | --- | --- |
| c1cnc2c(c1)ccc1cccnc12 [1,10-phenanthroline] | very bitter | – |
| CNC(N)=S [N-methylthiourea] | – | only slightly bitter |
| N#C[C@H](O[C@@H]1O[C@H](CO[C@@H]2O[C@H](CO)[C@@H](O)[C@H](O)[C@H]2O)[C@@H](O)[C@H](O)[C@H]1O)c1ccccc1 [amygdalin] | – | only slightly bitter |
| N=C(NCCCCCCNC(=N)NC(=N)Nc1ccc(Cl)cc1)NC(=N)Nc1ccc(Cl)cc1 [chlorhesidice] | – | only slightly bitter |
| Cc1ccccc1C(OCCN(C)C)c1ccccc1 (stereo not drawn) [orphenadrine hydrochloride] | – | most bitter component |
| CCN(CC)CCNC(=O)c1ccc(N)cc1 [procainamide hydrochloride] | – | only slightly bitter |
| CC(O)CO (stereo not drawn) [propylene glycol] | very bitter | – |
| O=C1NS(=O)(=O)c2ccccc21 [saccharin] | very bitter | – |
| O=C1CCCCCN1 [ε-Caprolactam] | – | only slightly bitter |
